# Tests used:
# [1] = test system: C. auris; settings: different C. auris strains, literature; cited from earlier work
# [2] = test system: C. auris; assay: Time-kill curve, drug alone and combined with hmAb 2G8; assay type: cell-based
# From the text: To support and deepen the data coming from MIC assays, a time-kill curve was elaborated to evaluate how the hmAb 2G8 combined with caspofungin or amphotericin B could improve their basal activity on C. auris.
# [3] = test system: C. auris; assay: EUCAST antifungal MIC assay, drug alone and combined with hmAb 2G8; assay type: cell-based; settings: drug alone
# Procedure: To evaluate the susceptibility of C. auris to caspofungin, amphotericin B and their combination with hmAb 2G8, we followed the EUCAST antifungal MIC method (EUCAST E.DEF. 7.3). Antifungal drugs were purchased from Sigma-Aldrich.
# The caspofungin and amphotericin B range concentrations analysed were reported in EUCAST document. Those concentrations were tested alone and in combination with 0.25, 2.5, 25 and 250 μg/ml of humanised antibody.
# The plates microdilution and the yeast inoculum were prepared as reported in EUCAST document. The wells with 100 μl of 2X final antifungal drugs concentration in RPMI 2% G medium were inoculated with 100 μl (1-5×10^5 CFU/ml) of yeast suspension of C. auris. The monoclonal antibody was added to the samples of yeast suspension to test the combination drug-antibody. The plates were incubated at 37° C. for 24 and 48 hours and read after incubation at 405 nm. The assays were performed in triplicate.
# As reported in EUCAST, echinocandins' MIC50 is the lowest drug concentration giving inhibition of≥50% of that of the drug-free control (dotted line). For amphotericin B, MIC50 is the same as for echinocandins while MIC90 is considered as the lowest concentration giving a growth inhibition of≥90% of that of the drug-free control (dotted bold line). […] At 48 hours (D), amphotericin B alone has its MIC50 and 90 at 1 μg/ml.
compound,measurement,setting,value
C[C@@H]1[C@H](O)[C@@H](C)/C=C/C=C/C=C/C=C/C=C/C=C/C=C/[C@H](O[C@@H]2O[C@H](C)[C@@H](O)[C@H](N)[C@@H]2O)C[C@@H]2O[C@](O)(C[C@@H](O)C[C@@H](O)[C@H](O)CC[C@@H](O)C[C@@H](O)CC(=O)O[C@H]1C)C[C@H](O)[C@H]2C(=O)O [amphotericin B],MIC,[1],≥ 2 µg/mL
same,log growth decrease (time-kill curve),"[2]; AMB 0.03125 μg/ml, 0 h",0.01 Log
same,log growth decrease (time-kill curve),"[2]; AMB 0.03125 μg/ml, 2 h",0.05 Log
same,log growth decrease (time-kill curve),"[2]; AMB 0.03125 μg/ml, 4 h",−0.19 Log
same,log growth decrease (time-kill curve),"[2]; AMB 0.03125 μg/ml, 6 h",−0.62 Log
same,log growth decrease (time-kill curve),"[2]; AMB 0.03125 μg/ml, 8 h",−1.04 Log
same,log growth decrease (time-kill curve),"[2]; AMB 0.03125 μg/ml, 24 h",−2.65 Log
same,log growth decrease (time-kill curve),"[2]; AMB 0.03125 μg/ml, 48 h",−2.85 Log
same,log growth decrease (time-kill curve),"[2]; AMB 0.0625 μg/ml, 0 h",0.00 Log
same,log growth decrease (time-kill curve),"[2]; AMB 0.0625 μg/ml, 2 h",0.07 Log
same,log growth decrease (time-kill curve),"[2]; AMB 0.0625 μg/ml, 4 h",−0.14 Log
same,log growth decrease (time-kill curve),"[2]; AMB 0.0625 μg/ml, 6 h",−0.59 Log
same,log growth decrease (time-kill curve),"[2]; AMB 0.0625 μg/ml, 8 h",−0.97 Log
same,log growth decrease (time-kill curve),"[2]; AMB 0.0625 μg/ml, 24 h",−2.59 Log
same,log growth decrease (time-kill curve),"[2]; AMB 0.0625 μg/ml, 48 h",−2.57 Log
same,log growth decrease (time-kill curve),"[2]; AMB 0.125 μg/ml, 0 h",0.01 Log
same,log growth decrease (time-kill curve),"[2]; AMB 0.125 μg/ml, 2 h",0.11 Log
same,log growth decrease (time-kill curve),"[2]; AMB 0.125 μg/ml, 4 h",−0.07 Log
same,log growth decrease (time-kill curve),"[2]; AMB 0.125 μg/ml, 6 h",−0.42 Log
same,log growth decrease (time-kill curve),"[2]; AMB 0.125 μg/ml, 8 h",−0.80 Log
same,log growth decrease (time-kill curve),"[2]; AMB 0.125 μg/ml, 24 h",−2.28 Log
same,log growth decrease (time-kill curve),"[2]; AMB 0.125 μg/ml, 48 h",−2.44 Log
same,log growth decrease (time-kill curve),"[2]; AMB 0.25 μg/ml, 0 h",0.07 Log
same,log growth decrease (time-kill curve),"[2]; AMB 0.25 μg/ml, 2 h",0.10 Log
same,log growth decrease (time-kill curve),"[2]; AMB 0.25 μg/ml, 4 h",0.02 Log
same,log growth decrease (time-kill curve),"[2]; AMB 0.25 μg/ml, 6 h",−0.02 Log
same,log growth decrease (time-kill curve),"[2]; AMB 0.25 μg/ml, 8 h",0.02 Log
same,log growth decrease (time-kill curve),"[2]; AMB 0.25 μg/ml, 24 h",0.19 Log
same,log growth decrease (time-kill curve),"[2]; AMB 0.25 μg/ml, 48 h",−2.13 Log
same,log growth decrease (time-kill curve),"[2]; AMB 0.5 μg/ml, 0 h",0.05 Log
same,log growth decrease (time-kill curve),"[2]; AMB 0.5 μg/ml, 2 h",0.21 Log
same,log growth decrease (time-kill curve),"[2]; AMB 0.5 μg/ml, 4 h",0.41 Log
same,log growth decrease (time-kill curve),"[2]; AMB 0.5 μg/ml, 6 h",0.86 Log
same,log growth decrease (time-kill curve),"[2]; AMB 0.5 μg/ml, 8 h",1.95 Log
same,log growth decrease (time-kill curve),"[2]; AMB 0.5 μg/ml, 24 h",≥3 Log
same,log growth decrease (time-kill curve),"[2]; AMB 0.5 μg/ml, 48 h",≥3 Log
same,log growth decrease (time-kill curve),"[2]; AMB 1 μg/ml, 0 h",0.05 Log
same,log growth decrease (time-kill curve),"[2]; AMB 1 μg/ml, 2 h",1.77 Log
same,log growth decrease (time-kill curve),"[2]; AMB 1 μg/ml, 4 h",≥3 Log
same,log growth decrease (time-kill curve),"[2]; AMB 1 μg/ml, 6 h",≥3 Log
same,log growth decrease (time-kill curve),"[2]; AMB 1 μg/ml, 8 h",≥3 Log
same,log growth decrease (time-kill curve),"[2]; AMB 1 μg/ml, 24 h",≥3 Log
same,log growth decrease (time-kill curve),"[2]; AMB 1 μg/ml, 48 h",≥3 Log
same,log growth decrease (time-kill curve),"[2]; AMB 2 μg/ml, 0 h",0.05 Log
same,log growth decrease (time-kill curve),"[2]; AMB 2 μg/ml, 2 h",≥3 Log
same,log growth decrease (time-kill curve),"[2]; AMB 2 μg/ml, 4 h",≥3 Log
same,log growth decrease (time-kill curve),"[2]; AMB 2 μg/ml, 6 h",≥3 Log
same,log growth decrease (time-kill curve),"[2]; AMB 2 μg/ml, 8 h",≥3 Log
same,log growth decrease (time-kill curve),"[2]; AMB 2 μg/ml, 24 h",≥3 Log
same,log growth decrease (time-kill curve),"[2]; AMB 2 μg/ml, 48 h",≥3 Log
same,log growth decrease (time-kill curve),"[2]; AMB 4 μg/ml, 0 h",0.06 Log
same,log growth decrease (time-kill curve),"[2]; AMB 4 μg/ml, 2 h",≥3 Log
same,log growth decrease (time-kill curve),"[2]; AMB 4 μg/ml, 4 h",≥3 Log
same,log growth decrease (time-kill curve),"[2]; AMB 4 μg/ml, 6 h",≥3 Log
same,log growth decrease (time-kill curve),"[2]; AMB 4 μg/ml, 8 h",≥3 Log
same,log growth decrease (time-kill curve),"[2]; AMB 4 μg/ml, 24 h",≥3 Log
same,log growth decrease (time-kill curve),"[2]; AMB 4 μg/ml, 48 h",≥3 Log
same,time at which fungicidal activity is obtained,"[2]; time-kill curve, as efficiency starts decreasing",24 h
same,MIC50,[3]; 24 hours,0.5 µg/mL
same,MIC90,[3]; 24 hours,0.5 µg/mL
same,MIC50,[3]; 48 hours,1 µg/mL
same,MIC90,[3]; 48 hours,1 µg/mL

# Reference: patent US20230406912A1, “HUMANISED ANTIBODIES AGAINST PATHOGENIC FUNGI” (priority 2020, published 2023)
